{"source": "PubChem BioAssay (NCI)", "note": "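Dose response: 5 concentrations. Exposure: 48 h. Format: 96-well plates. Endpoint: linear interpolation; highest concentration if not reached. At the GI50, growth is halved. TGI is the concentration that stops growth completely.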"}
{"tested_on": "M19-MEL melanoma", "assay": "NCI anticancer screen, dose series, 48 h", "units": {"TGI": "µM"}}
{"compound": "Nc1ccccc1S(=O)(=O)c1ccccc1", "TGI": "> 100"}
{"compound": "COc1cc2c(ccc3c4cc(OC)c(OC)cc4c[n+](C)c23)cc1O", "TGI": "> 75"}
{"compound": "CNC(=O)OCc1c(CO)nc(SC)n1C", "TGI": "> 100"}
{"compound": "CN(C)CC(CC1=C(CC(CN(C)C)N(C)C)CCC1)N(C)C", "note": "(centres undefined)", "TGI": "> 100"}
{"compound": "O=C(OCN1C(=O)C2C3C=CC(C2C1=O)C1C2C(=O)N(COC(=O)C4CCCN4)C(=O)C2C31)C1CCCN1", "note": "(centres undefined)", "TGI": "> 100"}
{"compound": "CCCCCCCCC/C=C/C=C/C(=O)NCC(=O)NC1C(O)C(O)C(Nc2ncnc3nc[nH]c23)OC1C(O)CO", "note": "(centres undefined)", "TGI": 0.0253}
{"tested_on": "HOP-62 NSCLC", "assay": "NCI anticancer screen, dose series, 48 h", "units": {"TGI": "µM", "GI50": "µM"}}
{"compound": "O=C(c1cccs1)N(C(=S)OC12CC3CC(CC(C3)C1)C2)c1ccccc1", "TGI": "> 100"}
{"compound": "CC1CC[C@@]2(OC1)OC1C[C@H]3[C@@H]4CC=C5CC(OC6OC(CO)C(OC7OC(CO)C(O)C(OC8OCC(O)C(O)C8O)C7OC7OC(CO)C(O)C(O)C7O)C(O)C6O)CCC5(C)[C@H]4CCC3(C)C1[C@@H]2C", "note": "(some centres undefined)", "TGI": 9.32}
{"compound": "Nc1ccccc1S(=O)(=O)c1ccccc1", "TGI": "> 100"}
{"compound": "Cc1c(N2C(=O)CS(=O)(=O)C2c2cccc(Oc3ccccc3)c2)c(=O)n(-c2ccccc2)n1C", "note": "(centres undefined)", "TGI": "> 100"}
{"compound": "COc1cc2c(ccc3c4cc(OC)c(OC)cc4c[n+](C)c23)cc1O", "TGI": 21}
{"compound": "CNC(=O)OCc1c(CO)nc(SC)n1C", "TGI": "> 100"}
{"compound": "CN(C)CC(CC1=C(CC(CN(C)C)N(C)C)CCC1)N(C)C", "note": "(centres undefined)", "TGI": "> 100"}
{"compound": "CCC1CN(C(=O)c2ccccc2)C(Cc2c[nH]c3ccccc23)C(=O)C1CC(=O)OC", "note": "(centres undefined)", "TGI": "> 100"}
{"compound": "NC(=O)c1c(NC(=O)c2ccccn2)sc2c1CCC(=O)C2", "GI50": "> 100", "TGI": "> 100"}
{"compound": "COc1ccc(C(=O)/C=C/c2cccc([N+](=O)[O-])c2)c(OC)c1", "GI50": 1.8, "TGI": "> 50"}
{"compound": "O=C(O)C1C2CCC(O2)C1C(=O)Nc1cccc2cccnc12", "note": "(centres undefined)", "TGI": "> 100"}
{"compound": "COc1cccc2c1Cc1cc(-c3ccccc3)[n+](C)n1-2", "TGI": "> 100"}
{"compound": "O=C(OCN1C(=O)C2C3C=CC(C2C1=O)C1C2C(=O)N(COC(=O)C4CCCN4)C(=O)C2C31)C1CCCN1", "note": "(centres undefined)", "TGI": "> 100"}
{"compound": "O=C(C[n+]1ccc2ccccc2c1)c1ccc2ccc3ccccc3c2c1", "TGI": 21.1}
{"compound": "NCCCCc1cc(O)c2c(c1O)C(=O)c1ccccc1C2=O", "TGI": 21.3}
{"compound": "Cc1ccccc1C(=O)N/N=C/c1ccc(Sc2nccn2C)c([N+](=O)[O-])c1", "TGI": "> 100"}
{"compound": "CCn1c(-c2ccc(N=NNc3ccc(-c4n[nH]c(=S)n4CC)cc3)cc2)n[nH]c1=S", "TGI": 8.03}
{"compound": "CC(=O)C1=C(C)N(c2ccc(C)cc2)C2(O)C=CC(=O)C3C(=O)N(c4ccccc4)C(=O)C132", "note": "(centres undefined)", "TGI": "> 100"}
{"compound": "COc1ccc2c(c1)[nH]c1c(/C=C/c3ccccc3)nccc12", "TGI": 41.4}
{"compound": "Clc1cc2c(cc1Cl)CC(NCCN1CCCC1)CC2", "note": "(centres undefined)", "TGI": 30.7}
{"compound": "[N-]=[N+]=CC(=O)c1ccccc1C#CCCc1ccccc1", "TGI": "> 100"}
{"compound": "CCN(CC(=O)O)C(=O)c1cccnc1", "TGI": "> 100"}
{"compound": "NCCSC(c1ccccc1)c1ccccc1", "TGI": 33.7}
{"compound": "CCCCCCCCC/C=C/C=C/C(=O)NCC(=O)NC1C(O)C(O)C(Nc2ncnc3nc[nH]c23)OC1C(O)CO", "note": "(centres undefined)", "GI50": 0.0011}
{"compound": "COc1nc(C#CC2(O)CCCCC2)nc(OC)n1", "TGI": 91}
{"compound": "C[C@H](CCC(=O)O)[C@H]1CC[C@@]2(C)[C@@H]3C(=O)C[C@H]4C(C)(C)[C@@H](O)CC[C@]4(C)[C@H]3C(=O)C[C@]12C", "TGI": "> 100"}
{"tested_on": "T-47D breast", "assay": "NCI anticancer screen, dose series, 48 h", "units": {"TGI": "µM", "GI50": "µM"}}
{"compound": "CCOC(=O)C1=NN(c2ccc(C)cc2)C2=CC(C)=NN(C)C(=S)N21", "TGI": 61.3}
{"compound": "O=C(c1cccs1)N(C(=S)OC12CC3CC(CC(C3)C1)C2)c1ccccc1", "TGI": "> 100"}
{"compound": "C(=N\\NC1=NCCN1)/c1ccc(-c2cn3cc(/C=N/NC4=NCCN4)ccc3n2)cc1", "TGI": "> 100"}
{"compound": "CC1CC[C@@]2(OC1)OC1C[C@H]3[C@@H]4CC=C5CC(OC6OC(CO)C(OC7OC(CO)C(O)C(OC8OCC(O)C(O)C8O)C7OC7OC(CO)C(O)C(O)C7O)C(O)C6O)CCC5(C)[C@H]4CCC3(C)C1[C@@H]2C", "note": "(some centres undefined)", "TGI": 11.9}
{"compound": "Cc1c(N2C(=O)CS(=O)(=O)C2c2cccc(Oc3ccccc3)c2)c(=O)n(-c2ccccc2)n1C", "note": "(centres undefined)", "TGI": "> 100"}
{"compound": "CCC1CN(C(=O)c2ccccc2)C(Cc2c[nH]c3ccccc23)C(=O)C1CC(=O)OC", "note": "(centres undefined)", "TGI": "> 100"}
{"compound": "CC12CC3OC(=O)C1COC14OC5(C2C1=O)C(O)(CCC1C4CC(O)C2(O)CC=CC(=O)C12C)C(=O)OC35C", "note": "(centres undefined)", "TGI": "> 100"}
{"compound": "NC(=O)c1c(NC(=O)c2ccccn2)sc2c1CCC(=O)C2", "GI50": 2.48, "TGI": "> 100"}
{"compound": "COc1ccc(C(=O)/C=C/c2cccc([N+](=O)[O-])c2)c(OC)c1", "GI50": 1.93, "TGI": "> 50"}
{"compound": "CCOC(=O)C(NC(=O)c1ccco1)(Nc1nc2ccc(OCC)cc2s1)C(F)(F)F", "note": "(centres undefined)", "TGI": "> 100"}
{"compound": "CCC(C)C1=C(OC(C)=O)[N+]2([O-])Oc3ccc(-c4c(OC(C)=O)c(OC(C)=O)c(-c5ccc(OC(C)=O)cc5)c(OC(C)=O)c4OC(C)=O)cc3OC2(C(C)CC)C(=O)N1OC(C)=O", "note": "(centres undefined)", "TGI": 24.8}
{"compound": "O=C(O)C1C2CCC(O2)C1C(=O)Nc1cccc2cccnc12", "note": "(centres undefined)", "TGI": "> 100"}
{"compound": "COc1cccc2c1Cc1cc(-c3ccccc3)[n+](C)n1-2", "TGI": 17.7}
{"compound": "O=C(C[n+]1ccc2ccccc2c1)c1ccc2ccc3ccccc3c2c1", "TGI": 19.3}
{"compound": "NCCCCc1cc(O)c2c(c1O)C(=O)c1ccccc1C2=O", "TGI": 43.3}
{"compound": "Cc1ccccc1C(=O)N/N=C/c1ccc(Sc2nccn2C)c([N+](=O)[O-])c1", "TGI": "> 100"}
{"compound": "CCn1c(-c2ccc(N=NNc3ccc(-c4n[nH]c(=S)n4CC)cc3)cc2)n[nH]c1=S", "TGI": 4.35}
{"compound": "CC(=O)C1=C(C)N(c2ccc(C)cc2)C2(O)C=CC(=O)C3C(=O)N(c4ccccc4)C(=O)C132", "note": "(centres undefined)", "TGI": 54.6}
{"compound": "COc1ccc2c(c1)[nH]c1c(/C=C/c3ccccc3)nccc12", "TGI": "> 100"}
{"compound": "Clc1cc2c(cc1Cl)CC(NCCN1CCCC1)CC2", "note": "(centres undefined)", "TGI": 25.5}
{"compound": "CCN(CC(=O)O)C(=O)c1cccnc1", "TGI": "> 100"}
{"compound": "COc1nc(C#CC2(O)CCCCC2)nc(OC)n1", "TGI": "> 100"}
{"compound": "C[C@H](CCC(=O)O)[C@H]1CC[C@@]2(C)[C@@H]3C(=O)C[C@H]4C(C)(C)[C@@H](O)CC[C@]4(C)[C@H]3C(=O)C[C@]12C", "TGI": "> 100"}
{"tested_on": "786-0 renal", "assay": "NCI anticancer screen, dose series, 48 h", "units": {"TGI": "µM"}}
{"compound": "O=C(c1cccs1)N(C(=S)OC12CC3CC(CC(C3)C1)C2)c1ccccc1", "TGI": "> 100"}
{"compound": "C(=N\\NC1=NCCN1)/c1ccc(-c2cn3cc(/C=N/NC4=NCCN4)ccc3n2)cc1", "TGI": "> 66.4"}
{"compound": "CC1CC[C@@]2(OC1)OC1C[C@H]3[C@@H]4CC=C5CC(OC6OC(CO)C(OC7OC(CO)C(O)C(OC8OCC(O)C(O)C8O)C7OC7OC(CO)C(O)C(O)C7O)C(O)C6O)CCC5(C)[C@H]4CCC3(C)C1[C@@H]2C", "note": "(some centres undefined)", "TGI": 19.4}
{"compound": "CC12CC3OC(=O)C1COC14OC5(C2C1=O)C(O)(CCC1C4CC(O)C2(O)CC=CC(=O)C12C)C(=O)OC35C", "note": "(centres undefined)", "TGI": "> 100"}
{"compound": "CCOC(=O)C(NC(=O)c1ccco1)(Nc1nc2ccc(OCC)cc2s1)C(F)(F)F", "note": "(centres undefined)", "TGI": 68.4}
